In PMC6104039 (Nature Communications, 2018):
Where “and” joins values, the source holds several entries; their conditions need not be identical. Identical values can stand only once.

Tested on: HEK293 cells
Test: Endogenous ceramide, HexCer and SM levels in cells treated 24 h, targeted LC-MS/MS
Format: cell-based
Set-up: Cer 18:1/24:0 content in HEK293 cells / Cer 18:1/24:1 content in HEK293 cells / HexCer 18:1/16:0 content in HEK293 cells / HexCer 18:1/18:0 content in HEK293 cells / HexCer 18:1/20:0 content in HEK293 cells / HexCer 18:1/22:0 content in HEK293 cells / Cer 18:1/16:0 content in HEK293 cells / Cer 18:1/18:0 content in HEK293 cells / Cer 18:1/20:0 content in HEK293 cells / Cer 18:1/22:0 content in HEK293 cells: unit not given here
Procedure: Lipids were then extracted using MTBE/methanol/water as described above.
HEK293 cell culture experiment: Levels of each lipid in P053-treated HEK293 cells were normalised to the mean of the vehicle control group, and each concentration was compared to the control using ANOVA with Dunnett’s post-test. P values were adjusted for multiple comparisons in GraphPad PRISM.
Supplementary Figure 1. Ceramide, SM, and HexCer levels in HEK293 cells treated with
P053. Absolute lipid levels were determined by targeted LC-MS/MS, relative to external
standard curves. Results are mean ± SEM (n = 4) from one of two identical experiments.
Statistically significant results, based on two independent experiments, are as indicated in
Figure 2b-d. Raw data for these figures is provided in Supplementary Data File 1.

[1] = HEK293 cells, 24 h, P053 300 nM
[2] = P053 10 nM, replicates, raw data Suppl Fig 1

C[C@@](N)(CO)CCc1ccc(OCc2ccc(Cl)c(Cl)c2)cc1 [P053, (S)-2-amino-4-(4-(3,4-dichlorobenzyloxy)phenyl)-2-methylbutan-1-ol]
16:0 SM level [1]: 91.5762 percentage of the vehicle control group and 97.3304 percentage of the vehicle control group and 95.7086 percentage of the vehicle control group and 90.4865 percentage of the vehicle control group and 94.7045 percentage of the vehicle control group and 94.6107 percentage of the vehicle control group and 97.4329 percentage of the vehicle control group
16:1 SM level [1]: 95.4131 percentage of the vehicle control group and 93.1931 percentage of the vehicle control group and 97.1412 percentage of the vehicle control group and 89.2518 percentage of the vehicle control group and 106.305 percentage of the vehicle control group and 110.099 percentage of the vehicle control group and 114.576 percentage of the vehicle control group
18:0 Cer level [1]: 21.4642 percentage of the vehicle control group and 24.1123 percentage of the vehicle control group and 20.5881 percentage of the vehicle control group and 19.7155 percentage of the vehicle control group and 31.2852 percentage of the vehicle control group and 28.1026 percentage of the vehicle control group and 22.7669 percentage of the vehicle control group
18:0 HexCer level [1]: 20.413 percentage of the vehicle control group and 33.7976 percentage of the vehicle control group and 27.9895 percentage of the vehicle control group and 24.1749 percentage of the vehicle control group and 31.4424 percentage of the vehicle control group and 25.6474 percentage of the vehicle control group and 28.2273 percentage of the vehicle control group
18:0 SM level [1]: 51.9053 percentage of the vehicle control group and 55.6537 percentage of the vehicle control group and 52.9265 percentage of the vehicle control group and 58.2406 percentage of the vehicle control group and 58.0965 percentage of the vehicle control group and 68.5828 percentage of the vehicle control group
18:1 SM level [1]: 49.0849 percentage of the vehicle control group and 55.9252 percentage of the vehicle control group and 57.6407 percentage of the vehicle control group and 49.9379 percentage of the vehicle control group and 59.4579 percentage of the vehicle control group and 65.5511 percentage of the vehicle control group and 62.889 percentage of the vehicle control group
20:0 Cer level [1]: 93.6887 percentage of the vehicle control group and 101.721 percentage of the vehicle control group and 118.09 percentage of the vehicle control group and 85.7665 percentage of the vehicle control group and 100.615 percentage of the vehicle control group and 64.6288 percentage of the vehicle control group and 92.3762 percentage of the vehicle control group
20:0 SM level [1]: 118.407 percentage of the vehicle control group and 108.075 percentage of the vehicle control group and 104.904 percentage of the vehicle control group and 101.736 percentage of the vehicle control group and 91.4298 percentage of the vehicle control group and 108.941 percentage of the vehicle control group and 75.5566 percentage of the vehicle control group
22:0 Cer level [1]: 118.325 percentage of the vehicle control group and 95.8434 percentage of the vehicle control group and 96.1691 percentage of the vehicle control group and 93.2377 percentage of the vehicle control group and 117.011 percentage of the vehicle control group and 126.355 percentage of the vehicle control group and 127.853 percentage of the vehicle control group
22:0 HexCer level [1]: 109.712 percentage of the vehicle control group and 101.896 percentage of the vehicle control group and 93.6786 percentage of the vehicle control group and 100.98 percentage of the vehicle control group and 134.335 percentage of the vehicle control group and 123.952 percentage of the vehicle control group and 138.922 percentage of the vehicle control group
22:0 SM level [1]: 115.888 percentage of the vehicle control group and 97.5579 percentage of the vehicle control group and 89.8927 percentage of the vehicle control group and 119.666 percentage of the vehicle control group and 127.143 percentage of the vehicle control group and 125.883 percentage of the vehicle control group and 147.638 percentage of the vehicle control group
22:1 SM level [1]: 108.27 percentage of the vehicle control group and 122.085 percentage of the vehicle control group and 110.7 percentage of the vehicle control group and 101.001 percentage of the vehicle control group and 122.515 percentage of the vehicle control group and 112.931 percentage of the vehicle control group and 116.965 percentage of the vehicle control group
24:0 HexCer level [1]: 104.713 percentage of the vehicle control group and 95.2413 percentage of the vehicle control group and 95.3365 percentage of the vehicle control group and 92.7673 percentage of the vehicle control group and 114.448 percentage of the vehicle control group and 102.627 percentage of the vehicle control group and 132.114 percentage of the vehicle control group
24:0 SM level [1]: 113.274 percentage of the vehicle control group and 99.4416 percentage of the vehicle control group and 98.6316 percentage of the vehicle control group and 91.5407 percentage of the vehicle control group and 114.934 percentage of the vehicle control group and 115.44 percentage of the vehicle control group and 155.315 percentage of the vehicle control group
24:1 Cer level [1]: 111.319 percentage of the vehicle control group and 96.194 percentage of the vehicle control group and 99.387 percentage of the vehicle control group and 100.62 percentage of the vehicle control group and 125.506 percentage of the vehicle control group and 116.048 percentage of the vehicle control group and 122.55 percentage of the vehicle control group
24:1 HexCer level [1]: 99.7739 percentage of the vehicle control group and 98.9226 percentage of the vehicle control group and 100.626 percentage of the vehicle control group and 98.0727 percentage of the vehicle control group and 98.7766 percentage of the vehicle control group and 107.494 percentage of the vehicle control group and 117.137 percentage of the vehicle control group
24:1 SM level [1]: 105.1 percentage of the vehicle control group and 102.826 percentage of the vehicle control group and 108.435 percentage of the vehicle control group and 97.4023 percentage of the vehicle control group and 115.741 percentage of the vehicle control group and 108.576 percentage of the vehicle control group and 128.227 percentage of the vehicle control group
Cer 18:1/16:0 content in HEK293 cells [2]: 22.4895 and 20.1065 and 20.2227 and 20.5646
Cer 18:1/18:0 content in HEK293 cells [2]: 6.1592 and 6.073 and 6.699 and 5.451
Cer 18:1/20:0 content in HEK293 cells [2]: 0.6713 and 0.9209 and 0.7221 and 0.8599
Cer 18:1/22:0 content in HEK293 cells [2]: 56.12 and 63.3729 and 65.2079 and 63.3152
